Data on one compound can be found in PubChem BioAssay AID1745844 (Carcinogenic Potency Database (CPDB), 2022).

Activity calls are given as the source filed them. No rule for the calls is given here.

In the data set the test system is rodent lifetime carcinogenesis bioassay, tumor incidence TD50. Kind of data set: chronic cancer bioassays in animals – CPDB, compiled studies (AID 1745844). As to conditions: for carcinogen call: hamster, strain Syrian Golden, inhaled, lesion: one or several types, types not named, dosed 52 weeks, study length 81 weeks; for TD50: by gavage, dosed 103 weeks.

As usually defined, the TD50 is the dose at which the toxic effect under study appears in half of the subjects. As to `O=Cc1ccco1`, the carcinogen call is “negative (inactive)” (females, site: liver); “negative (inactive)” (females, site: lung); “negative (inactive)” (males, site: liver); “negative (inactive)” (males, site: lung). In addition, the TD50 was 920 mg/kg/day (mouse, strain B6C3F1, females, site: forestomach, lesion: squamous-cell papilloma, study length 104 weeks); 377 mg/kg/day (mouse, strain B6C3F1, females, site: liver, lesion: hepatocellular adenoma + hepatocellular carcinoma + neoplastic nodule, study length 104 weeks); 377 mg/kg/day (mouse, strain B6C3F1, females, site: liver, lesion: hepatocellular adenoma + hepatocellular carcinoma, study length 104 weeks); 364 mg/kg/day (mouse, strain B6C3F1, females, site: liver, lesion: hepatocellular adenoma, study length 104 weeks); 165 mg/kg/day (mouse, strain B6C3F1, males, site: any site (literature study), lesion: several types, types named in the paper, study length 104 weeks); 1400 mg/kg/day (mouse, strain B6C3F1, males, site: kidney cortex, lesion: adenoma + carcinoma, study length 104 weeks). In addition, the TD50 is 135 mg/kg/day (mouse, strain B6C3F1, males, site: liver, lesion: hepatocellular adenoma + hepatocellular carcinoma + neoplastic nodule, study length 104 weeks); 135 mg/kg/day (mouse, strain B6C3F1, males, site: liver, lesion: hepatocellular adenoma + hepatocellular carcinoma, study length 104 weeks); 207 mg/kg/day (mouse, strain B6C3F1, males, site: liver, lesion: hepatocellular adenoma, study length 104 weeks); 219 mg/kg/day (mouse, strain B6C3F1, males, site: liver, lesion: hepatocellular carcinoma, study length 104 weeks); 662 mg/kg/day (mouse, strain B6C3F1, males, site: lung, lesion: alveolar/bronchiolar adenoma + alveolar/bronchiolar carcinoma, study length 104 weeks); 169 mg/kg/day (mouse, strain B6C3F1, males, site: subcutaneous tissue, lesion: fibrosarcoma + fibroma + sarcoma, study length 104 weeks). Further, the TD50 is 190 mg/kg/day (mouse, strain B6C3F1, males, site: subcutaneous tissue, lesion: fibrosarcoma + fibroma, study length 104 weeks); 187 mg/kg/day (mouse, strain B6C3F1, males, site: subcutaneous tissue, lesion: fibrosarcoma + sarcoma, study length 104 weeks); 212 mg/kg/day (mouse, strain B6C3F1, males, site: subcutaneous tissue, lesion: fibrosarcoma, study length 104 weeks); 194 mg/kg/day (inactive) (rat, strain Fischer 344, females, site: any site (literature study), lesion: several types, types named in the paper, study length 105 weeks); 150 mg/kg/day (rat, strain Fischer 344, males, site: any site (literature study), lesion: several types, types named in the paper, study length 105 weeks); 683 mg/kg/day (rat, strain Fischer 344, males, site: liver, lesion: cholangiocarcinoma, study length 105 weeks).
